Measurements published in the NIST ThermoML archive (doi:10.1021/je800110r).

Details: 303.15 K, Liquid, Vibrating tube method

CCCCCCCCCC [decane]
Details | mass density [kg/m3]
29181 kPa | 743.5
29208 kPa | 743.5
29234 kPa | 743.6
29258 kPa | 743.5
29278 kPa | 743.6
29302 kPa | 743.6
29320 kPa | 743.5
29341 kPa | 743.6
29363 kPa | 743.6
29384 kPa | 743.6
29402 kPa | 743.6
29426 kPa | 743.6
29444 kPa | 743.7
29466 kPa | 743.6
29484 kPa | 743.7
29502 kPa | 743.7
29530 kPa | 743.8
29548 kPa | 743.7
29575 kPa | 743.7
29600 kPa | 743.7
29618 kPa | 743.8
29640 kPa | 743.8
29658 kPa | 743.8
29685 kPa | 743.9
29703 kPa | 743.8
29722 kPa | 743.9
29747 kPa | 743.9
29774 kPa | 743.9
29790 kPa | 743.8
29812 kPa | 743.8
29828 kPa | 744
29859 kPa | 743.9
29883 kPa | 744
29905 kPa | 744
29930 kPa | 743.9
29952 kPa | 744
29967 kPa | 744
29987 kPa | 743.9
30005 kPa | 744
30023 kPa | 744.1
30051 kPa | 743.9
30077 kPa | 744.1
30099 kPa | 744
30125 kPa | 744
30150 kPa | 744.2
30169 kPa | 744.1
30198 kPa | 744.2
30220 kPa | 744.1
30248 kPa | 744.2
30267 kPa | 744.2
30290 kPa | 744.2
30322 kPa | 744.2
30348 kPa | 744.3
30374 kPa | 744.3
30397 kPa | 744.2
30420 kPa | 744.3
30443 kPa | 744.3
30468 kPa | 744.4
30491 kPa | 744.4
30516 kPa | 744.3
30533 kPa | 744.4
30553 kPa | 744.4
30582 kPa | 744.3
30601 kPa | 744.5
30621 kPa | 744.4
30644 kPa | 744.5
30665 kPa | 744.4
30695 kPa | 744.5
30715 kPa | 744.3
30739 kPa | 744.4
30762 kPa | 744.5
30789 kPa | 744.7
30809 kPa | 744.5
30833 kPa | 744.5
30853 kPa | 744.7
30884 kPa | 744.6
30908 kPa | 744.6
30931 kPa | 744.6
30956 kPa | 744.5
30980 kPa | 744.6
31007 kPa | 744.6
31031 kPa | 744.6
31062 kPa | 744.8
31083 kPa | 744.7
31111 kPa | 744.7
31134 kPa | 744.6
31157 kPa | 744.7
31178 kPa | 744.8
31212 kPa | 744.7
31231 kPa | 744.8
31252 kPa | 744.9
31271 kPa | 744.8
31293 kPa | 744.9
31311 kPa | 744.9
31327 kPa | 744.8
31348 kPa | 744.9
31363 kPa | 744.9
31381 kPa | 744.9
31400 kPa | 744.9
31425 kPa | 744.9
31446 kPa | 745
31468 kPa | 745
31490 kPa | 744.9
31515 kPa | 744.9
31540 kPa | 745
31565 kPa | 745
31588 kPa | 745
31610 kPa | 745.1
31640 kPa | 745.2
31660 kPa | 745.1
31688 kPa | 745.1
31707 kPa | 745.2
31725 kPa | 745.2
31754 kPa | 745.1
31769 kPa | 745.2
31798 kPa | 745.1
31817 kPa | 745.2
31842 kPa | 745.2
31861 kPa | 745.1
31887 kPa | 745.1
31906 kPa | 745.3
31925 kPa | 745.3
31950 kPa | 745.3
31972 kPa | 745.3
31995 kPa | 745.3
32014 kPa | 745.3
32040 kPa | 745.4
32059 kPa | 745.4
32079 kPa | 745.4
32098 kPa | 745.3
32128 kPa | 745.3
32150 kPa | 745.4
32176 kPa | 745.3
32198 kPa | 745.5
32228 kPa | 745.4
32251 kPa | 745.4
32274 kPa | 745.5
